Measured values published in patent US20160312311A1, “MARKERS FOR ISOCITRATE DEHYDROGENASE INHIBITORS” (NOVARTIS AG, priority 2013, published 2016).

What was measured:
Format in all cases: cell-based
HCT116 IDH1/2 WT cells = assay: H3K9me2 Western blot after exogenous 2-HG treatment; details: 10 mM 2-HG or 1 mM Cell-Permeable 2-HG for about 30 days
Method: In order to evaluate the effect of IDH1 mutations, IDH2 mutations and 2-HG on H3K9me2, HCT116 colorectal cells that were engineered to endogenously express various clinically relevant mutations in IDH1 or IDH2 (Horizon Discovery, Cambridge, UK) were assayed for changes in H3K9me2 levels. […] HCT116 IDH1/2 WT cells were also exogenously treated with 10 mM 2-HG or 1 mM Cell-Permeable 2-HG for about 30 days. All cells were grown in McCoy's 5A Media (Life Technologies, Carlsbad, Calif.) containing 10% Fetal Bovine Serum (Hyclone, Logan, Utah). At least 10^6 cells per line were harvested and subject to a Histone Acid Extraction® Protocol (Abcam, Cambridge, Mass.). Cells in culture were rinsed with PBS and detached using 0.25% trypsin. Trypsin was deactivated using fresh media and the sample was spun down at 1000 rpm for 5 minutes. Media was aspirated and samples were kept at −80° C. until ready for processing.
Cells were washed twice in ice-cold PBS supplemented with 5 mM sodium butyrate (Sigma-Aldrich, St. Louis Mo.). Cells were then resuspended in Triton Extraction Buffer (TEB: PBS containing 0.5% TritonX 100(v/v), 2 mM phenylmethylsulfonyl fluoride (PMSF), 0.02% (w/v) sodium azide) also supplemented with 5 mM sodium butyrate at density of 10^7 cells per mL. […] Histone extracts were subsequently quantified using a detergent compatible (“DC”) protein assay kit (BioRad, Hercules, Calif.). […]

HT1080 and SNU1079 cells = assay: Histone profiling by LC-MS/MS, compound 162 vs. DMSO; details: 3 μM, 6 days
Method: (§1) Also profiled were three endogenously mutant cell lines upon modulation of the target by chemical or genetic means in order to evaluate other lysine methylation marks. We used histone acid extracts (as described in Example 1) from HT1080 and SNU1079 cells treated with 3 μM compound 162 or DMSO control for 6 days, as well as SW1353 cells that have been induced (100 ng/mL doxycycline) with IDH2 specific shRNA (shIDH2-891 or shNTC) for 6 days. Histones were further enriched with ActiveMotif® Histone purification mini kit (ActiveMotif Inc., Carlsbad, Calif.)
(§2) The purified histones were desalted by off line reversed phase chromatography on an 1200 Agilent tower (Agilent, Santa Clara, Calif.) using a Jupiter® 5 μm C4 300 Å Column 150×2 mm (Phenomenex, Torrance, Calif.). The resulting peak area was used to estimate concentration against the peak area of histones of known concentration. The desalted histones were lyophilyzed prior to lysine derivatization. […]
(§3) The data obtained via mass spectrometry was interpreted using Mascot Distiller® (Matrix Science, Boston, Mass.) for identification followed by manual verification. The peak area obtained from the data acquired was processed using Skyline Software® (v1.4.0.422 University of Washington, Seattle, Wash.) for quantitation of the peptides bearing post translational modifications.

[1] = system: SNU1079 cholangiocarcinoma cells (IDH1-R132C/WT), IDH2-R172K background; assay: H3K9me2 Western blot in SNU1079 expressing IDH2-R172K; details: doxycycline-induced IDH2-R172K, day 6
Method: (§4) As disclosed in Example 4, compound 162 is specific for IDH1 mutations. As such, it is a useful compound to determine the contribution of IDH2 to H3K9me2 methylation levels. SNU1079 cholangiocarcinoma cells (KCLB) contain an IDH1 mutation (IDH1-R132C/WT). These cells were cultured in RPMI-1640 (Life Technologies, Carlsbad, Calif.) supplemented with 1% Sodium Pyruvate and 10% Tet-free fetal bovine serum (Hyclone, Logan Utah). Full length IDH2 cDNAs (WT or R172K) were cloned into pLKO-TREX-neomycin for lentiviral transduction (Wee et al., Proc. Nat. Acad. Sci. U.S.A. 2008 105(35):13057-13062). Lentiviral particles were produced by co-transfecting the cDNA expression vector of interest with packaging plasmids Δ8.9 and VSVG into 293T cells (ATCC CRL-11268) using Transit293® transfection reagent (Mirus, Madison, Wis.). Lentiviral supernatants were then used to spin-infect SNU1079 cells in the presence of 8 μg/mL polybrene. Cells recovered overnight in fresh medium and were then selected and continually cultured in appropriate antibiotics.
(§5) SNU1079 stably expressing IDH2 isoforms were co-treated with doxycycline (100 ng/mL) final concentration to induce IDH2 (WT or R172K) expression. These lines were treated with DMSO or doses of compound 162. Cells were harvested on day 6 post-treatment and processed for histones as described above. […]

[2] = system: HCT116 cells (wild type for IDH1 and IDH2); assay: H3K9me2 Western blot in IDH1 and IDH2 wild type cell line; details: increasing concentrations, 3-6 days
Method: In order to examine the role of H3K9me2 levels as marker, cells that were wild type for IDH1 and IDH2, for example HCT116 cells, were treated with a compound that inhibits IDH1 mutant activity (compound 162). HCT116 colon cells cancer cells (ATCC CCL-247) were cultured in McCoy's 5A (Life Technologies, Carlsbad, Calif.) supplemented with 10% fetal bovine serum (Hyclone, Logan Utah). These cells were treated for 3-6 days with increasing concentrations of compound 162 or DMSO vehicle as control.
Histone extracts were prepared with NuPAGE® 4×LDS Sample Buffer (Life Technologies, Carlsbad, Calif.) and heated to 70° C. for 10 minutes. Samples were run on NuPage® Novex 4-12% Bis-Tris gel (Life Technologies, Carlsbad, Calif.) using MES buffer (Life Technologies, Carlsbad, Calif.). The gel was then transferred onto nitrocellulose membrane using the iBlot system (Life Technologies, Carlsbad Calif.) on setting P3 for 7 minutes. The antibodies used are shown above in Table 1.

[3] = system: SNU1079 cholangiocarcinoma cells (IDH1-R132C/WT), IDH2-WT background; assay: H3K9me2 Western blot in SNU1079 expressing IDH2 WT; details: doxycycline-induced IDH2 WT, day 6
Method: as §4, §5

[4] = system: IDH1-R132C mutant HT1080 sarcoma cells; assay: H3K9me2 immunohistochemistry with quantitative image analysis; details: 5 μM, 6 days
Method: In order to determine if changes in H3K9me2 level could be detected via immunohistochemistry, HT1080 cell lines were plated onto […] tissue culture flasks (Corning, Cat #3001, Tewksbury, Mass.). The cells were treated with DMSO or 5 μM compound 162 and incubated for 6 days, with media change at day 3. HT1080 cell pellets were harvested by removing media, washing with 1×PBS, and adding 10 ml of 10% neutral buffer formalin. Cells were then scraped from the bottom of the flask and placed in a 50 ml conical tube, filled to ˜50 ml with 10% neutral buffered formalin, and allowed to fix for 1-2 hours. […]
FFPE slides were cut at 3.5 μm thickness, mounted on charged slides (Thermo-Scientific Colormark® Plus Cat #CM-5951, West Palm Beach, Fla.) and baked at 60° C. for 1 hour. […] The secondary antibody, Ventana OmniMap® HRP-conjugated anti-mouse (Ventana Cat #760-4310 Tucson, Ariz.), was incubated for 4 minutes and detected with Ventana's ChromoMap® DAB detection kit (Ventana Cat #760-159, Tucson, Ariz.). […]
Coverslipped slides were scanned with Aperio ScanScope ® XT (Vista, Calif.) for quantitative digital image analysis. Digital images were analyzed with Visiopharm® (Hoersholm, Denmark) image analysis software. The nuclear detection algorithm detected both hematoxylin and DAB-stained nuclei in the image. […]

[5] = system: SW1353 chondrosarcoma cells (IDH2-R172S/WT); assay: H3K9me2 Western blot in IDH2 mutant SW1353 cells upon IDH2 knockdown; details: SW1353 stable lines, doxycycline 100 ng/mL, 6 days
Method: SW1353 chondrosarcoma cells (ATCC HTB-94) contain an activating mutation in IDH2 (IDH2-R172S/WT). These cells were cultured in RPM-1640 (Life Technologies, Carlsbad, Calif.) supplemented with 1% sodium pyruvate and 10% Tet-Free fetal bovine serum. IDH2 shRNAs were cloned into pLKO-Tet-ON-puromycin vectors. All shRNAs were validated to give sufficient knockdown of target as judged by RNA, protein, and reduced 2-HG production.
Lentiviral particles were produced by co-transfecting the shRNA plasmid of interest with packaging plasmids Δ8.9 and VSVG into 293T cells using Transit293® transfection reagent (Mirus, Madison, Wis.). Lentiviral supernatants were then used to spin-infect HT-1080 cells in the presence of 8 μg/mL polybrene. Cells recovered overnight in fresh medium and were then selected and continually cultured in appropriate antibiotics.
SW1353 stable lines were cultured with and without doxycycline (100 ng/mL final concentration) for 6 days in the absence of selection. At day 6, cells were lifted using trypsin and histones were extracted as previously described.
Histone extracts were prepared with NuPAGE® 4×LDS Sample Buffer (Life Technologies, Carlsbad, Calif.) and heated to 70° C. for 10 minutes. Samples were run on NuPage® Novex 4-12% Bis-Tris gel (Life Technologies, Carlsbad, Calif.) using MES buffer (Life Technologies, Carlsbad, Calif.). […]

SW1353 cells = assay: Histone profiling by LC-MS/MS, IDH2 shRNA vs. non-targeting control shRNA; details: doxycycline 100 ng/mL, 6 days, vs. shNTC
Method: as §1, §2, §3

## O=C(O)CCC(O)C(=O)O (stereo not drawn) [2-HG, 2-hydroxyglutarate]
HCT116 IDH1/2 WT cells
  H3K9me2 levels (Western blot, FIG. 1B): sufficient to increase H3K9me2 levels

## CC(C)[C@H]1COC(=O)N1c1ccnc(N[C@@H](C)c2ccc(Oc3ccccc3)cc2)n1 [compound 162, (S)-4-isopropyl-3-(2-(((S)-1-(4 phenoxyphenyl)ethyl)amino)pyrimidin-4-yl)oxazolidin-2-one]
HT1080 and SNU1079 cells
  H3K9me0 level, change from control (mass spectrometry, FIG. 7): H3K9me0 level increases
  H3K9me2 level, change from control (mass spectrometry, FIG. 7): H3K9me2 level reduction
[1]
  H3K9me2 level (Western blot, FIG. 5 right panel): the reduction of H3K9me2 level is attenuated
[2]
  H3K9me2 levels (Western blot, FIG. 4): does not affect H3K9me2 levels
[3]
  H3K9me2 level (Western blot, FIG. 5 left panel): able to reduce the H3K9me2 level in a dose-dependent manner
[4]
  H3K9me2 levels by immunohistochemistry (FIG. 6A): decreases levels H3K9me2
[4]; entire cross section, vs DMSO
  decrease in H3K9me2 levels, quantitative image analysis (FIG. 6B): 27%

## shIDH2-309: IDH2 specific shRNA, 5′ GTGGACATCCAGCTAAAGTAT 3′ (SEQ ID NO: 9)
[5]
  H3K9me2 methylation level (Western blot, FIG. 3): H3K9me2 methylation level is reduced

## shIDH2-891: IDH2 specific shRNA, 5′ ATCTTTGACAAGCACTATAAG 3′ (SEQ ID NO: 10)
SW1353 cells
  H3K9me0 level, change from control (mass spectrometry, FIG. 7): H3K9me0 level increases
  H3K9me2 level, change from control (mass spectrometry, FIG. 7): H3K9me2 level reduction
[5]
  H3K9me2 methylation level (Western blot, FIG. 3): H3K9me2 methylation level is reduced
